Measurements taken from publication PMC10353390, “Biological and Structural Analyses of New Potent Allosteric Inhibitors of HIV-1 Integrase” (Antimicrobial Agents and Chemotherapy, 2023).
Read-outs that look alike come from different tables or passages of the source.

How the values were obtained:
[1] = system: VSV-G-pseudotyped NL4-3Δenv-luc; test: microbe, parasite or virus in culture; format: cell-based, HIV-1
HIV-1 IN = target: T1, HIV-1 IN (Human immunodeficiency virus type 1 group M subtype B, UniProt P12497); test: HTRF IN multimerization assay; format: biochemical; details: mean ± SD
T1 construct: made in house
Text: A key property of INLAIs is the ability to promote HIV-1 IN homo-multimerization ([39][–][42]). […] The maximal signal (plateau) in our IN aggregation assay corresponds to the highest HTRF signal increase under saturating INLAI concentration, relative to baseline level. Thus, MUT916, MUT884, MUT871, and MUT872 increased HIV-1 IN aggregation 3.7 to 4.4-fold, while BDM-2, BI-224436, and S-I-82 did so 5 to 6-fold (Table 1).

[2] = target: CCD of HIV-1 IN and IBD of LEDGF/p75 (Human immunodeficiency virus type 1 group M subtype B, UniProt P12497); test: biochemical
HXB2 HIV-1 strain = test: Multiple-round infection assay in MT4 cells, HXB2; format: cell-based; details: Human immunodeficiency virus 1, HXB2; multiple-round infection, MT4 cells; mean ± SD, n > 5; read-out: EC50 HXB2
How it was run: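 MT4 cells at 10^6/mL were infected with HIV-1 at MOI 0.001 for 2 h in the presence of compound dilutions. Cell viability, measured by CellTiter-Glo luminescence, served as the read-out of protection in this multiple-round infection.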

NL4-3 HIV-1 clone = test: Combination antiviral activity assay (MacSynergy II) in NL4-3-infected MT4 cells; format: cell-based
Text: To this end, we evaluated the activity of BDM-2 in the presence of approved antiretroviral drugs against NL4-3 HIV-1 clone replicating on MT4 cells. Examples of MacSynergy plots obtained for the combinations of BDM-2 with the protease inhibitor lopinavir (LPV) or the INSTI EVG are shown in Fig. 3A and B, respectively. The results indicated no antagonism of ascending concentrations of BDM-2 with the antiviral activity of LPV or EVG and vice versa. Next, we extended these analyses to a panel of 16 FDA-approved antiretroviral drugs, including 3 protease inhibitors, 6 NRTIs, 4 NNRTIs, and 3 INSTIs.
BDM-2, as lead compound representative of the series, was used in these experiments. Combination studies were performed in MT4 cells infected with NL4-3, as previously described ([3]). Multiple concentrations of BDM-2 were tested in checkerboard pattern in the presence and absence of dilutions of 16 representative approved anti-HIV drugs of different classes. Compound combinations were analyzed by calculations to quantify deviation from additivity at the 50% level. Data were analyzed as described by Prichard and Shipman by using the MacSynergy II program ([54]). Synergy volumes in the range of −25 to +25 define additivity; −50 minor antagonism, +50 minor synergy, and up to 100 and >100 moderate and strong synergy, respectively. Combinations of RBV with AZT or ddI were used as controls for antagonism and synergy, respectively.

NL4-3 HIV-1 strain = test: Multiple-round infection assay in MT4 cells, NL4-3; format: cell-based; details: MT4 cells
[3] = system: HIV-1 strains resistant to INSTIs, NRTIs, NNRTIs or PIs; format: cell-based
How it was run: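 NL4-3-based recombinant mutants and drug-resistant clinical isolates; exponentially growing MT4 cells (10^6/mL) infected at MOI 0.001 for 2 h with compound at varying concentrations. Protection quantified as cell viability by CellTiter-Glo luminescence.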

[4] = system: lab-adapted and clinical HIV-1 isolates; test: Infection assays in primary T CD4+ lymphocytes; format: cell-based; details: Human immunodeficiency virus 1, Lymphocyte
[5] = set-up: method as in ref 20 = [20]; 20 Single ascending dose trial investigating safety, tolerability and pharmacokinetics of BDM-2 in healthy male subjects . https://clinicaltrials.gov/ct2/show/NCT03634085 . Accessed 17 July 2020 .; details: single ascending dose, healthy male subjects; cited from earlier work
[6] = INSTI-resistant, NL4-3 background
[7] = INSTI-resistant, primary patient-derived strain

Cc1ccc(C2CC2)c(-c2ccc3c(c2)CCCO3)c1[C@H](OC(C)(C)C)C(=O)O [BDM-2]
EC50 ratio (single/multiple-round infection) [1]: 161 | EC50 ([1]; Human immunodeficiency virus 1, NL43, MT4, read-out: EC50 in single-round infection): 1400 ± 300 nM | AC50 (HIV-1 IN; concentration for 50% maximum activation of multimerization): 20 ± 11 nM | IN multimerization Plateau (HIV-1 IN; maximum multimerization reached versus baseline): 560 ± 150% | IC50 [2]: 150 ± 30 nM | EC50 (HXB2 HIV-1 strain): 4.5 ± 1.2 nM | interaction with a panel of 16 FDA-approved antiretroviral drugs (NL4-3 HIV-1 clone; 3 protease inhibitors, 6 NRTIs, 4 NNRTIs, 3 INSTIs, MacSynergy): no antagonism | interaction with lopinavir (LPV) (NL4-3 HIV-1 clone; MacSynergy synergy volume): strong synergy (up to 100 and >100 moderate and strong synergy, respectively) | interaction with some of the remaining drugs, including the INSTIs (NL4-3 HIV-1 clone; MacSynergy synergy volume): moderate synergy (up to 100 and >100 moderate and strong synergy, respectively) | EC90 (NL4-3 HIV-1 strain; Human immunodeficiency virus 1, NL43, multiple-round infection, from dose response curves, read-out: EC90 NL4-3): 13 ± 5.1 nM | EC50 (NL4-3 HIV-1 strain; Human immunodeficiency virus 1, NL43, multiple-round infection, mean ± SD, n > 5, read-out: EC50 NL4-3): 8.7 ± 2.8 nM | Selectivity index CC50/EC50 NL4-3 (NL4-3 HIV-1 strain): 7,931 | Fold change in EC50 relative to NL4-3, E92Q [3, 6]: 1 | Fold change in EC50 relative to NL4-3, G140S [3, 6]: 1 | Fold change in EC50 relative to NL4-3, G140S/Q148H [3, 6]: 1 | Fold change in EC50 relative to NL4-3, N155H [3, 6]: 1 | Fold change in EC50 relative to NL4-3, Q148H [3, 6]: 1 | Fold change in EC50 relative to NL4-3, Y143R [3, 6]: 1 | Fold change in EC50 relative to NL4-3, E92Q/N155H (pat.) [3, 7]: 1 | Fold change in EC50 relative to NL4-3, G140S/Q148H (pat.) [3, 7]: 1 | Fold change in EC50 relative to NL4-3, T97A/N155H (pat.) [3, 7]: 1 | Fold change in EC50 relative to NL4-3, NLAY351717 ([3]; NRTI-resistant clone): 2 | Fold change in EC50 relative to NL4-3, NLAY351753 ([3]; NRTI/NNRTI-resistant clone): 1 | Fold change in EC50 relative to NL4-3, K103N/Y181C ([3]; NRTI/NNRTIs group, NL4-3 background): 1 | Fold change in EC50 relative to NL4-3, ARP-4595 ([3]; PI-resistant virus): 1 | Fold change in EC50 relative to NL4-3, ARP-4596 ([3]; PI-resistant virus): 0.5 | Fold change in EC50 relative to NL4-3, ARP-11801 ([3]; PI-resistant virus): 1 | Fold change in EC50 relative to NL4-3, ARP-11803 ([3]; PI-resistant virus): 1 | Fold change in EC50 relative to NL4-3, ARP-11807 ([3]; PI-resistant virus): 1 | Fold change in EC50 relative to NL4-3, ARP-11808 ([3]; PI-resistant virus): 1 | EC50 ([4]; read-out: EC50 33913N (B)): 4.2 ± 1.6 nM | EC50 ([4]; read-out: EC50 HXB2 (B)): 3.4 ± 1 nM | EC50 ([4]; read-out: EC50 KER2008 (A)): 8.1 ± 1.3 nM | EC50 ([4]; read-out: EC50 NL4-3 (B)): 8.3 ± 4.3 nM | EC50 ([4]; read-out: EC50 NP1525 (CRF01_AE)): 11 ± 5 nM | EC50 ([4]; read-out: EC50 NP1538 (B)): 13 ± 6 nM | safety in phase I clinical trial [5]: without any serious adverse event and few mild adverse events
